According to the NIST ThermoML archive (doi:10.1016/j.fluid.2011.08.018):
± gives the expanded uncertainty stated by the source.

Test: mean ionic activity coefficient (dimensionless); mn = molality of the nth substance listed, in mol/kg
Settings: 298.15 K, 101 kPa, Liquid, EMF measurements

SMILES: [Cl-].[Na+] [sodium chloride] + CNC=O
- mean ionic activity coefficient (m1 = 0.0396): 0.986 ± 0.01
- mean ionic activity coefficient (m1 = 0.052): 0.985 ± 0.01
- mean ionic activity coefficient (m1 = 0.0642): 0.983 ± 0.01
- mean ionic activity coefficient (m1 = 0.102): 0.984 ± 0.01
- mean ionic activity coefficient (m1 = 0.1375): 0.984 ± 0.01
- mean ionic activity coefficient (m1 = 0.1655): 0.978 ± 0.01
- mean ionic activity coefficient (m1 = 0.1934): 0.971 ± 0.01

SMILES: [Cl-].[Na+] [sodium chloride] + O
- mean ionic activity coefficient (m1 = 0.0496): 0.819 ± 0.01
- mean ionic activity coefficient (m1 = 0.1857): 0.733 ± 0.01
- mean ionic activity coefficient (m1 = 0.1979): 0.733 ± 0.01
- mean ionic activity coefficient (m1 = 0.3096): 0.707 ± 0.01
- mean ionic activity coefficient (m1 = 0.3711): 0.689 ± 0.01
- mean ionic activity coefficient (m1 = 0.4571): 0.686 ± 0.01
- mean ionic activity coefficient (m1 = 0.5916): 0.675 ± 0.01
- mean ionic activity coefficient (m1 = 0.6871): 0.659 ± 0.01
- mean ionic activity coefficient (m1 = 0.8318): 0.663 ± 0.01
- mean ionic activity coefficient (m1 = 1.139): 0.651 ± 0.01
- mean ionic activity coefficient (m1 = 1.212): 0.659 ± 0.01
- mean ionic activity coefficient (m1 = 1.77): 0.657 ± 0.01
- mean ionic activity coefficient (m1 = 1.87): 0.67 ± 0.01
- mean ionic activity coefficient (m1 = 2.394): 0.68 ± 0.01
- mean ionic activity coefficient (m1 = 2.624): 0.702 ± 0.01
- mean ionic activity coefficient (m1 = 3.587): 0.75 ± 0.01
- mean ionic activity coefficient (m1 = 3.811): 0.78 ± 0.01
- mean ionic activity coefficient (m1 = 4.654): 0.83 ± 0.01
- mean ionic activity coefficient (m1 = 5.142): 0.891 ± 0.01
- mean ionic activity coefficient (m1 = 5.443): 0.921 ± 0.01
- mean ionic activity coefficient (m1 = 5.693): 0.929 ± 0.01
- mean ionic activity coefficient (m1 = 5.891): 0.97 ± 0.01
- mean ionic activity coefficient (m1 = 6.032): 0.985 ± 0.01
- mean ionic activity coefficient (m1 = 6.085): 0.976 ± 0.01
- mean ionic activity coefficient (m1 = 6.1): 0.997 ± 0.01
